Six molecules from patent US20100273189A1, “NON SEPARATION ASSAYS WITH SELECTIVE SIGNAL INHIBITORS” (BECKMAN COULTER, INC., priority 2009, published 2010) can be followed below.

In the test the target is T1, biotinylated HRP (Armoracia rusticana, UniProt P00433).
T1 construct: purchased Roche Diagnostics, Indianapolis, Ind., USA
T1 sequence (P00433 31-338 limits assumed): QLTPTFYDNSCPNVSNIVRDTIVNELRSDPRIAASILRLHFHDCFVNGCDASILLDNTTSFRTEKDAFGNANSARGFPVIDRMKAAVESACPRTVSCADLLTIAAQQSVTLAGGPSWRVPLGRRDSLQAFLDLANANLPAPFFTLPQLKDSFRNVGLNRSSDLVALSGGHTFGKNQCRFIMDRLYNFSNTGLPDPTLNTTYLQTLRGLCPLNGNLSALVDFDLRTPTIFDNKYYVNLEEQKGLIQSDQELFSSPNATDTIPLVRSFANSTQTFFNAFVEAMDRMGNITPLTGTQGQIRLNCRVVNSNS
The test is described as follows: Model system for selection of SSIA (M280 btn-BSA-AK1-streptavidin particles + Btn-HRP:HRP). Type of test: biochemical. The settings on record: for S/S0: Btn-HRP 0 ng/mL vs 0; for S/S0 / S1/S0 / S2/S0 / S3/S0 / S4/S0 / effect in the model system / utility as SSIA: SSIA 100 μM; for B-HRP0 light intensity: Btn-HRP 0 ng/mL; for B-HRP0 light intensity / B-HRP1 light intensity / B-HRP10 light intensity / B-HRP100 light intensity / B-HRP250 light intensity: total HRP 500 ng/mL, SSIA final 100 μM; for S1/S0: Btn-HRP 1 ng/mL vs 0; for B-HRP1 light intensity: Btn-HRP 1 ng/mL; for S2/S0: Btn-HRP 10 ng/mL vs 0; for B-HRP10 light intensity: Btn-HRP 10 ng/mL; for S3/S0: Btn-HRP 100 ng/mL vs 0; for B-HRP100 light intensity: Btn-HRP 100 ng/mL; for S4/S0: Btn-HRP 250 ng/mL vs 0; for B-HRP250 light intensity: Btn-HRP 250 ng/mL; for effect in the model system / utility as SSIA: conclusion in words. On the procedure:
The model system uses a microparticle conjugated to BSA (bovine serum albumin) labeled with a […] and acridan ketenedithioacetal chemiluminescent label (AK1) as the chemiluminescent-labeled sbp, and biotinylated HRP as the activator-labeled specific binding pair. In the model system, varying amounts of Btn-HRP is added to the chemiluminescent-labeled specific binding pair at 0, 1, 10, 100 and 250 ng/mL. Additional unlabeled HRP is added to reach a total HRP of concentration of 500 ng/mL in each reaction mixture. The unlabeled HRP in combination with the activator-labeled sbp was provided to the chemiluminescent-labeled sbp microparticles to emulate sample. A compound for assessment as an SSIA was also added. This reaction mixture of the model system is then triggered by addition of trigger solution in a manner of assays of the present disclosure.
To prepare the chemiluminescent-labeled sbp on microparticles, Bovine Serum Albumin (BSA) was biotinylated with 4× molar excess of biotin-LC-sulfoNHS (Pierce Biotechnology Inc., Rockford, Ill., USA). Unbound reactants were removed via desalting or dialysis. The biotin-BSA was then reacted with a 5× molar excess of acridan ketenedithioacetal AK1 in 20 mM sodium phosphate pH 7.2: DMSO 75:25, v/v) followed by desalting in the same buffer. The dual labeled (biotin and AK1) BSA was then coupled with tosyl activated M-280 microparticles (Invitrogen Corporation, Carlsbad, Calif., USA) in a 0.1 M borate buffer pH 9.5 at a concentration of ca. 20 μg labeled BSA per mg of microparticles for 16-24 h at 40° C. After coupling the microparticles were stripped for 1 h at 40° C. with 0.2 M TRIS base, 2% SDS, pH ˜11. The stripping process was repeated one additional time. Microparticles were then suspended in a 0.1% BSA/TRIS buffered saline (BSA/TBS) buffer and streptavidin (SA) was added at approximately 15 μg SA per mg microparticles. Streptavidin was mixed with the microparticles for 45-50 min at room temperature. The microparticles were then washed three times and suspended in the same BSA/TBS.
HRP, (Roche Diagnostics, Indianapolis, Ind., USA) was biotinylated with 4× molar excess of biotin-LC-sulfoNHS (Pierce Biotechnology Inc., Rockford, Ill., USA). Unbound reactants were removed via desalting or dialysis.
Each SSIA compound for assessment was dissolved in Buffer II at a concentration at least 10× of final concentration of the reaction mixture (after the addition of the trigger solution)
Paramagnetic particles (PMP): (M280)-(btn-BSA-AK)-(Streptavidin);
Sample Emulator: B-HRP:HRP; 500 ng/mL total with titration of B-HRP:HRP at Total HRP concentration of 500 ng/mL, with Btn-HRP variations: 0, 1, 10, 100 and 250 ng/mL.
SSIA: According to tables below in BUFFER II targeted to give a final concentration of 100 μM.
Trigger solution A is defined above.
5 μl of 1 mg/ml of dual-labeled (biotin and AK1) BSA M280 particles were mixed with 45 μl of working concentration SSIA in Buffer II. The assay volume brought to […] by adding 15 μl of Buffer II. 15 μl of sample containing Btn-HRP:HRP at different ratios (The amount of biotinylated-HRP varied from 0, 1, 10, 100 and 250 ng/mL) was added. The reaction mixture was incubated for 30 min at 37° C., then 100 μL of trigger solution was added and the light intensity recorded. Total volume of reaction mixture, including trigger solution was […] with a final concentration of 100 μM of SSIA.

The structures appear in SMILES notation.

On to `Cc1c(C)c2c(c(C)c1O)CC[C@@](C)(CCC[C@H](C)CCC[C@H](C)CCCC(C)C)O2` (racemic) [(+/−)-alpha-Tocopherol, (±)-a-Tocopherol], for which the S/S0 came to 1, the B-HRP0 light intensity was 2,772, the S1/S0 was 2.3 and the B-HRP1 light intensity is recorded as 6,468. Further, the S2/S0 was found to be 452.1, the B-HRP10 light intensity is on record as 1,253,187, the S3/S0 was determined as 3088.2 and the B-HRP100 light intensity was 8,560,469. The S4/S0 is given as 3473.4 and the B-HRP250 light intensity is 9,628,184.

Take `O=C(O)CCCC[C@@H]1CCSS1` (racemic) [Lipoic Acid]: the S/S0 stood at 1, the B-HRP0 light intensity is recorded as 35,016, the S1/S0 is 2 and the B-HRP1 light intensity is recorded as 71,751. The S2/S0 worked out at 70, the B-HRP10 light intensity is on record as 2,450,949, the S3/S0 is given as 246.9 and the B-HRP100 light intensity is reported as 8,647,037. For the same molecule, the S4/S0 is 252.7, the B-HRP250 light intensity is recorded as 8,847,921 and the “effect in the model system / utility as SSIA” value was “no effect”.

On to `Oc1ccc(O)c(Cl)c1` [2-chloro-1,4-dihydroxybenzene], for which the S/S0 was 1, the B-HRP0 light intensity was 3,571, the S1/S0 was 1.1 and the B-HRP1 light intensity is listed as 4,007. Moreover, the S2/S0 was determined as 52.9, the B-HRP10 light intensity is recorded as 188,920, the S3/S0 turned out to be 170.8 and the B-HRP100 light intensity was 610,053. Moreover, the S4/S0 was 245.3, the B-HRP250 light intensity is 875,831 and the “effect in the model system / utility as SSIA” value is recorded as “demonstrating utility as SSIA”.

Regarding `Nc1ccc(C(=O)O)cc1O` [4-Amino-3-hydroxybenzoic acid, 4-amino-3-hydroxybenzoic acid], the S/S0 is recorded as 1, the B-HRP0 light intensity is reported as 972, the S1/S0 worked out at 2.9 and the B-HRP1 light intensity is reported as 2,808. Further, the S2/S0 came out at 454.2, the B-HRP10 light intensity is 441,455, the S3/S0 came to 6076.7 and the B-HRP100 light intensity is 5,906,521. In addition, the S4/S0 worked out at 6587.9, the B-HRP250 light intensity was 6,403,425 and the “effect in the model system / utility as SSIA” value is “demonstrating utility as SSIA”.

For `Cl.Nc1ccc(O)cc1O` [4-aminoresorcinol HCl, 4-aminoresorcinol hydrochloride], the S/S0 is 1, the B-HRP0 light intensity is reported as 675, the S1/S0 stood at 1.7 and the B-HRP1 light intensity is 1,163. Besides, the S2/S0 came to 110.8, the B-HRP10 light intensity was 74,764, the S3/S0 was 489 and the B-HRP100 light intensity is 330,056. In addition, the S4/S0 worked out at 384.5, the B-HRP250 light intensity is reported as 259,541 and the “effect in the model system / utility as SSIA” value is “demonstrating utility as SSIA”.

As to `Oc1ccc(Cl)cc1O` [4-chlorocatechol], the S/S0 is given as 1, the B-HRP0 light intensity was determined as 93, the S1/S0 is listed as 2.2 and the B-HRP1 light intensity was found to be 205. Also, the S2/S0 is 14.8, the B-HRP10 light intensity was 1,373, the S3/S0 came to 4910.8 and the B-HRP100 light intensity is reported as 456,707. The S4/S0 was 13558.5, the B-HRP250 light intensity is 1,260,937 and the “effect in the model system / utility as SSIA” value is “demonstrating utility as SSIA”.
